# From patent US20130023553A1, “PEGYLATED OPIOIDS WITH LOW POTENTIAL FOR ABUSE AND SIDE EFFECTS” (Nektar Therapeutics, priority 2010, published 2013)
# Where two headings read alike, the source gives them in different places.
# How the values were obtained:
# [1] = target: T1, human mu opioid receptor (Homo sapiens, UniProt P35372); experiment: cell-based; conditions: for Emax: maximal response at the highest tested concentration, read-out: % max effect, mu opioid receptor; for EC50: read-out: EC50, mu opioid receptor
# T1 construct: expressed in transfected cells; host or cells: CHO cells
# T1 sequence (P35372 whole entry): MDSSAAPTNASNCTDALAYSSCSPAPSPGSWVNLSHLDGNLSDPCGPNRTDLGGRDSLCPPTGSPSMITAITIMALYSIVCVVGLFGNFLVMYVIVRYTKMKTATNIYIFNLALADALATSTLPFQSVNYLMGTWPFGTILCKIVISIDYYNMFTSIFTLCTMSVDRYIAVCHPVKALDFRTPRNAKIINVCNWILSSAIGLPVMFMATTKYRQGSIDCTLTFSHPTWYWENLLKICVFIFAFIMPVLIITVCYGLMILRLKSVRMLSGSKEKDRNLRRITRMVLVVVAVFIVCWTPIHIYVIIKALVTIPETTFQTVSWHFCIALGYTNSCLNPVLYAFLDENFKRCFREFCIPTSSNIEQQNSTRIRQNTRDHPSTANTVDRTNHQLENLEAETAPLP
# Description: (§1) Studies were conducted in CHO cells heterologously expressing the cloned human mu, kappa or delta opioid receptors. cAMP was measured using a cAMP HiRange homogenous time-resolved fluorescence assay (HTRF Assay), that is based on a competitive immunoassay principle (Cisbio, Cat.#62AM6PEC).
# (§2) Briefly, suspensions of cells expressing either the mu, kappa or delta opioid receptors were prepared in buffer containing 0.5 mM isobutyl-methyl xanthine (IBMX). […] EC50 values were calculated for each compound from a sigmoidal dose-response plot of concentrations versus maximum response. To determine if the compounds behaved as full or partial agonists in the system, the maximal response at the highest tested concentrations of compounds were compared to that produced by a known full agonist.
# [2] = Pharmacokinetics following intravenous (IV) dosing; type: in vivo, Sprague-Dawley rats; conditions: male, Sprague-Dawley, rat, plasma; for Cmax: read-out: Cmax; for Vd: read-out: Vss
# Source text: (§3) There were 3 rats/group. All animals were food fasted overnight. […] The predose sample was collected from the JVC.
# (§4) Following the last collection point, the animals were euthanized.
# [3] = target: T2, human kappa opioid receptor (Homo sapiens, UniProt P41145); experiment: biochemical; type: binding
# T2 construct: expressed in transfected cells; host or cells: CHO cells
# T2 sequence (P41145 whole entry): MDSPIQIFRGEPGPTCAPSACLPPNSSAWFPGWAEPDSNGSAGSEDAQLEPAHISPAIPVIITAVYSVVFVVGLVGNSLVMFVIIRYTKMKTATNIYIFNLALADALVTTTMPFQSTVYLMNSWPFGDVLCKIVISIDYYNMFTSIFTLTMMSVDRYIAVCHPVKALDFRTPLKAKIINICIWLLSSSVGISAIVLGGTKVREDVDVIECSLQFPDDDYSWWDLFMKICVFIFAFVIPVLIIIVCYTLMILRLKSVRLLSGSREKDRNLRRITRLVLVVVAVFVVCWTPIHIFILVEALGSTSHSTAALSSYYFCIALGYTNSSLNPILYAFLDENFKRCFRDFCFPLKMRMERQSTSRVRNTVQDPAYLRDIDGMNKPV
# Description: (§5) Radioligand displacement was measured using scintillation proximity assays (SPA).
# (§6) Briefly, serial dilutions of the test compounds were placed in a 96-well plate to which were added SPA beads, membrane and radioligand. The assay conditions for each opioid receptor subtype are described in Table 10 below. The plates were incubated for 8 hours-overnight at room temperature, spun at 1000 rpm to pellet the SPA beads, and radioactivity was measured using the TopCount® microplate Scintillation counter. Specific binding at each concentration of test compound was calculated by subtracting the non-specific binding measured in the presence of excess cold ligand. IC50 values were obtained by non-linear regression of specific binding versus concentration curves and Ki values were calculated using Kd values that were experimentally pre-determined for each lot of membrane preparations.
# [4] = target: T1, human mu opioid receptor; experiment: biochemical; type: binding; conditions: CHO-K1 membranes, [3H]DAMGO 6 nM; read-out: Ki, Mu opioid receptor
# Description: as §5, §6
# [5] = Pharmacokinetics following oral (PO) dosing; type: in vivo, Sprague-Dawley rats; conditions: male, Sprague-Dawley, rat, plasma; for Cmax: read-out: Cmax; for Tmax: read-out: Tmax (converted)
# Source text: as §3, §4
# [6] = target: T2, human kappa opioid receptor; experiment: cell-based; conditions: maximal response at the highest tested concentration; read-out: % max effect, kappa opioid receptor
# Description: as §1, §2
# [7] = test system: squirrel monkeys; experiment: Monkey self-administration model of addictive potential; conditions: 0.03 mg/kg/injection
# Source text: Dose-related effects of the test articles were examined, using two or more doses of each drug in 3-4 subjects in a double alternation schedule in which each unit dose (or vehicle) was used in two consecutive sessions before a change in unit dose.
# Addictive potential of opioid compounds and opioid conjugates of the invention may be assessed through the use of squirrel monkey models as known in the art.
# Under the double alternation schedule, each unit dose (or vehicle) was available for intravenous self-administration for two consecutive sessions before the unit dose was changed. In this way, it was possible to establish the function relating unit dose of intravenous drug to (i) number of injections per session, and/or (ii) the percentage of total responses that occur on the lever leading to self-administration (injection-lever responding, % ILR). Unit doses of drugs ranged from 0.01 to 3.2 mg/kg/injection.
# [8] = test system: Male CD-1 mice; experiment: Assessment of CNS side effects in mice (Straub tail, muscle rigidity, pinna reflex)
# Source text: The objective of this study was to provide an approximation of the side effect profile of various oligomeric conjugates for comparison to the parent compounds by measuring various gross behavioral and physiological signs following administration of compound.
# Additional evaluations included muscle rigidity and pinna reflex.
# Male CD-1 mice from Charles River Laboratories, Raleigh, N.C., weighing from 16-18 grams were maintained on a regular light/dark cycle (lights on 0600-1800) with ad libitum food and water for 1 week before commencement of testing. N=2 per treatment condition, i.e., separate mice for each dose of each test article, injection was performed via a 25-gauge ⅝-inch needle on a 1-mL tuberculin syringe for the s.c. route and a 22-gauge stainless steel mouse feeding tube for the p.o. route (Becton, Dickinson & Co., Franklin Lakes, N.J.). Each treatment condition was divided about evenly between two observers. […] Test article was administered (s.c. or p.o., and the mouse was placed immediately in the observation chamber). One-half, 1, 2, and 3 hours later, the animal was observed undisturbed for gross signs such as locomotor ataxia, tremor, hyperactivity, hypoactivity, convulsions, hindlimb splay, and Straub tail, and then removed and assessed for muscle tone (normal, rigid, flaccid), pinna reflex (presence or absence), righting reflex (intact or lost), and placing (whether or not the forepaws are extended when the mouse is placed near a surface).
# Each of the tables show the number of animals responding at each dose, where N=2. […] A bolded value indicates the lowest dose at which a response was detected.
# [9] = hydroxycodone series, 1 mg/kg IV, Mean ± SD
# [10] = hydroxycodone series, 5.0 mg/kg oral, Mean ± SD
structure (smiles),measurement,setting,value
COCCOCCOCCOCCOC1C=CC2C3Cc4ccc(OC)c5c4C2(CCN3C)C1O5 (stereo not drawn) [α-6-mPEG4-O-codeine],Emax,[1],99%
same,EC50,[1],22.1 µM
same,AUC,"[2]; iv, 1 mg/kg",253 ng·h/mL
same,AUC(0-inf),"[2]; iv, 1 mg/kg",257 ng·h/mL
same,MRT last,"[2]; iv, 1 mg/kg",0.458 h
same,clearance,"[2]; iv, 1 mg/kg",65.9 ± 10.4 mL/min/kg
same,Cmax,"[2]; iv, 1 mg/kg",746 ± 70 ng/mL
same,half-life,"[2]; iv, 1 mg/kg, read-out: T1/2(2)",0.952 ± 0.73 h
same,Vd,"[2]; iv, 1 mg/kg",2.3 ± 0.72 L/kg
same,Ki,[3],97 µM
same,Ki,[4],2.89 µM
same,AUC,"[5]; po, 5 mg/kg",42.2 ng·h/mL
same,AUC(0-inf),"[5]; po, 5 mg/kg",44.5 ng·h/mL
same,MRT last,"[5]; po, 5 mg/kg",1.4 h
same,bioavailability,"[5]; po, 5 mg/kg",3.47%
same,Cmax,"[5]; po, 5 mg/kg",31.1 ± 13.1 ng/mL
same,half-life,"[5]; po, 5 mg/kg, read-out: T1/2(2)",1.97 ± 1 h
same,Tmax,"[5]; po, 5 mg/kg",0.25 h
COCCOCCOCCOCCOCCOC1C=CC2C3Cc4ccc(OC)c5c4C2(CCN3C)C1O5 (stereo not drawn) [α-6-mPEG5-O-codeine],Emax,[6],60%
same,Emax,[1],95%
same,AUC,"[2]; iv, 1 mg/kg",192 ng·h/mL
same,AUC(0-inf),"[2]; iv, 1 mg/kg",195 ng·h/mL
same,MRT last,"[2]; iv, 1 mg/kg",0.53 h
same,clearance,"[2]; iv, 1 mg/kg",86.2 ± 7.04 mL/min/kg
same,Cmax,"[2]; iv, 1 mg/kg",533 ± 38.9 ng/mL
same,half-life,"[2]; iv, 1 mg/kg, read-out: T1/2(2)",0.712 ± 0.0593 h
same,Vd,"[2]; iv, 1 mg/kg",2.95 ± 0.157 L/kg
same,Ki,[3],59.1 µM
same,Ki,[4],2.43 µM
same,AUC,"[5]; po, 5 mg/kg",91.8 ng·h/mL
same,AUC(0-inf),"[5]; po, 5 mg/kg",98.2 ng·h/mL
same,MRT last,"[5]; po, 5 mg/kg",1.8 h
same,bioavailability,"[5]; po, 5 mg/kg",10.1%
same,Cmax,"[5]; po, 5 mg/kg",48.7 ± 10.8 ng/mL
same,half-life,"[5]; po, 5 mg/kg, read-out: T1/2(2)",2.08 ± 1.06 h
same,Tmax,"[5]; po, 5 mg/kg",0.25 h
COCCOCCOCCOCCOCCOCCOC1C=CC2C3Cc4ccc(OC)c5c4C2(CCN3C)C1O5 (stereo not drawn) [α-6-mPEG6-O-codeine],Emax,[6],21%
same,Emax,[1],80%
same,EC50,[1],97.4 µM
same,Ki,[3],> 160 µM
same,Ki,[4],14.2 µM
"COCCOCCOCCOCCOCCOCCOCCOC1CCC2(O)C3Cc4ccc(OC)c5c4C2(CCN3C)C1O5 (stereo not drawn) [α-6-mPEG7-O-hydroxycodone, α-6-mPEG7-O-oxycodone]",injection lever responses (% ILR),[7],only food lever responses
same,Emax,[1],101%
same,EC50,[1],7.45 µM
same,AUC,[2]; [9],238 ng·h/mL
same,AUC(0-inf),[2]; [9],263 ng·h/mL
same,MRT last,[2]; [9],0.905 h
same,clearance,[2]; [9],63.3 ± 2.99 mL/min/kg
same,Cmax,[2]; [9],489 ± 26.5 ng/mL
same,half-life,"[2]; hydroxycodone series, 1 mg/kg IV, Mean ± SD, read-out: T1/2(z)",1.45 ± 0.0542 h
same,Vd,[2]; [9],5.31 ± 0.139 L/kg
same,Ki,[4],1.61 µM
same,"Straub Tail, fold difference relative to parent compound","[8]; PO, 1/2 responding",30 fold
same,"Loss Pinna, fold difference relative to parent compound","[8]; PO, 2/2 responding",30 fold
same,"Muscle Rigidity, fold difference relative to parent compound","[8]; PO, 2/2 responding",30 fold
same,"Straub Tail, fold difference relative to parent compound","[8]; PO, 2/2 responding",100 fold
same,"Muscle Rigidity, fold difference relative to parent compound","[8]; SC, 1/2 responding",>300 fold
same,"Straub Tail, fold difference relative to parent compound","[8]; SC, 1/2 responding",10 fold
same,"Loss Pinna, fold difference relative to parent compound","[8]; SC, 2/2 responding",100 fold
same,"Muscle Rigidity, fold difference relative to parent compound","[8]; SC, 2/2 responding",30 fold
same,"Straub Tail, fold difference (reduction in CNS activity) relative to parent compound","[8]; SC, 2/2 responding",10 fold
same,bioavailability,"[5]; po, 5 mg/kg",28.1%
same,AUC,[5]; [10],340 ng·h/mL
same,MRT last,[5]; [10],2.97 h
same,AUC(0-inf),"[5]; hydroxycodone series, 5.0 mg/kg oral, Mean ± SD, * n = 2",370 ng·h/mL
same,half-life,"[5]; hydroxycodone series, 5.0 mg/kg oral, Mean ± SD, * n = 2, read-out: T1/2(z)",1.92 ± 0.487 h
same,Cmax,[5]; [10],114 ± 38 ng/mL
same,Tmax,"[5]; hydroxycodone series, 5.0 mg/kg oral, median value",2 h
